Tested on: Sorbitol oxidase
Assay: Substrate range study of sorbitol oxidase (relative POx activities for substrates)
Type: biochemical, Streptomyces sp. H-7775
[1] = substrates 50 mM in 10 mM phosphate buffer pH 7.0, relative to sorbitol

Relative Activity (+, 0) [1]	Structure (SMILES)	Relative Activity (+, 0) (pH 7)
++++++ (++++++=100%)	OC[C@@H](O)[C@@H](O)[C@H](O)[C@@H](O)CO [D-Sorbitol]	–
–	OCCO [Ethylene glycol]	0
0	CC(O)CO (stereo not drawn) [Propylene glycol]	–
